Measured values taken from patent US11786492B2, “Therapeutic agent for phosphodiesterase inhibition and its related disorders” (Novalead Pharma Inc, priority 2017, dated 2023).

Legend:
human PBMCs = assay: Cell viability of human PBMCs, Alamar blue; format: cell-based
Description: Fresh human blood from healthy volunteer was collected in anticoagulant (5 mM) ethylene diamine tetra acetic acid (EDTA) containing tubes. The growth medium used was RPMI-1640 medium (with 3% FBS) and incubated at 37° C. for 60 mins in a 5% CO2 incubator with vehicle used as 1% DMSO. The cell viability was checked at various time points using Alamar blue and fluorescence readings were taken at excitation of 544 nm and emission of 590 nm.

HaCaT cells [1] = assay: Cell viability of HaCaT cells, Alamar blue; format: cell-based, human
Description: (§1) HaCaT cells were maintained in T-75 cm2 flask in Dulbecco's modified Eagle medium supplemented with FBS (10%), L-glutamine (2 mM), penicillin (100 ug/ml), streptomycin (100 ug/ml) at 37° C. in 5% CO2 incubator. Cell growth was maintained to 70-80% confluence for seeding and vehicle used was 1% DMSO. The cell viability was checked at various time points using Alamar blue and fluorescence readings were taken at excitation of 544 nm and emission of 590 nm.

PDE2 (Human platelets) = molecular target: T1, PDE2 (Human platelets) (Homo sapiens, UniProt O00408); assay: Radiolabeled enzyme assay PDE2; format: biochemical; settings: read-out: % inhibition at 30 μM, 1.01 μM [3H]cAMP+cAMP
T1 construct: PDE2 (Human platelets); from tissue; host or cells: human platelets
T1 sequence (O00408 whole entry): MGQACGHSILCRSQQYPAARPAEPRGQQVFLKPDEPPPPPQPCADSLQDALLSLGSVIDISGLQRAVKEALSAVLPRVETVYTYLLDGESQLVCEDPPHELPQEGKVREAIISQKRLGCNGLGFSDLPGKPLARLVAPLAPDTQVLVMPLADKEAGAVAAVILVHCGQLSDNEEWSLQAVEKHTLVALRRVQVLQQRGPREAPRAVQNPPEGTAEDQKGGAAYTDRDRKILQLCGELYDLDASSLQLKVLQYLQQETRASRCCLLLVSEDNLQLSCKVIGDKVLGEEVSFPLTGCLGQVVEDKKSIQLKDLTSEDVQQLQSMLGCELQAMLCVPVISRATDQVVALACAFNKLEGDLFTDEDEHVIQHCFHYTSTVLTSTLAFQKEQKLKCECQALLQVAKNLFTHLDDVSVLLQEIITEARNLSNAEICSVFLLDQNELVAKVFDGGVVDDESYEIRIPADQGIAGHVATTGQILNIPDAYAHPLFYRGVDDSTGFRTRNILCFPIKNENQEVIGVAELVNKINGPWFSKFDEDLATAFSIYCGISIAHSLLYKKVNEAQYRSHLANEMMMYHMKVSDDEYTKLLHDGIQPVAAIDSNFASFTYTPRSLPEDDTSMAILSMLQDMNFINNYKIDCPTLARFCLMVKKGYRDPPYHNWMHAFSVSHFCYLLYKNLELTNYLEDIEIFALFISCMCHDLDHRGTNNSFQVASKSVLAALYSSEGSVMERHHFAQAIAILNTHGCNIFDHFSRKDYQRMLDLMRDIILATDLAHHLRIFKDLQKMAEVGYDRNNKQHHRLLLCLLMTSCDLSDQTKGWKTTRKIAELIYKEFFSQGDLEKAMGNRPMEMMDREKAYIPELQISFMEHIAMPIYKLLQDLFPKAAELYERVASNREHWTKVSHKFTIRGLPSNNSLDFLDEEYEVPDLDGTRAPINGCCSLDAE
Description: (§2) Enzyme assays have been optimized for incubation time, substrate concentration and method of end-product determination.

PDE5 (Human platelets) = molecular target: T2, PDE5 (Human platelets) (Homo sapiens, UniProt O76074); assay: Radiolabeled enzyme assay PDE5; format: biochemical; settings: read-out: % inhibition at 30 μM, 1.01 μM [3H]cGMP+cGMP
T2 construct: PDE5 (Human platelets); from tissue; host or cells: human platelets
Description: as §2

PDE1A = PDE1A (Homo sapiens, UniProt P54750); assay: Fluorescence polarization assay PDE1A; format: biochemical; settings: substrate cGMP, Ca-CaM
PDE1A, sequence (P54750 whole entry, species assumed): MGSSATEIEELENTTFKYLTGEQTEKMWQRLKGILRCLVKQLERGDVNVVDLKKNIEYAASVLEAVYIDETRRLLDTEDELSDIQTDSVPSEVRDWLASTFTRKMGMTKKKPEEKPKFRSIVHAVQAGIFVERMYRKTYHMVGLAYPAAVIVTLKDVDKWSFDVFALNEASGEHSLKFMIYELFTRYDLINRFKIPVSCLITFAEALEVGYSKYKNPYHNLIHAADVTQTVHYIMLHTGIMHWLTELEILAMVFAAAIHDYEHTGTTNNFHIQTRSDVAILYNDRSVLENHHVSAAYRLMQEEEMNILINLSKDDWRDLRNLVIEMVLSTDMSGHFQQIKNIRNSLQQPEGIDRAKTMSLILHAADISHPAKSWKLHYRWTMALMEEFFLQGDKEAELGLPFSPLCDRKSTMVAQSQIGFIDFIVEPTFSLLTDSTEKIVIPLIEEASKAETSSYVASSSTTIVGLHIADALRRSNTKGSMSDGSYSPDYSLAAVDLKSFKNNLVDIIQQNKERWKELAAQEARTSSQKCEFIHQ
Description: (§3) An experiment to check inhibition of various subtypes of the target Phosphodiesterase (PDE) enzyme in in-vitro assay was performed. […] PDE1A, PDE2A, PDE4A, PDE4B, PDE4C, PDE4D, PDE5A, PDE7A, PDE9A, PDE10A.

PDE2A = PDE2A (Homo sapiens, UniProt O00408); assay: Fluorescence polarization assay PDE2A; format: biochemical; settings: substrate cGMP
PDE2A, sequence (O00408 whole entry, species assumed): as the sequence (O00408 whole entry) above
Description: as §3

PDE4A = PDE4A (Homo sapiens, UniProt P27815); assay: Fluorescence polarization assay PDE4A; format: biochemical; settings: substrate cAMP
PDE4A, sequence (P27815 whole entry, species assumed): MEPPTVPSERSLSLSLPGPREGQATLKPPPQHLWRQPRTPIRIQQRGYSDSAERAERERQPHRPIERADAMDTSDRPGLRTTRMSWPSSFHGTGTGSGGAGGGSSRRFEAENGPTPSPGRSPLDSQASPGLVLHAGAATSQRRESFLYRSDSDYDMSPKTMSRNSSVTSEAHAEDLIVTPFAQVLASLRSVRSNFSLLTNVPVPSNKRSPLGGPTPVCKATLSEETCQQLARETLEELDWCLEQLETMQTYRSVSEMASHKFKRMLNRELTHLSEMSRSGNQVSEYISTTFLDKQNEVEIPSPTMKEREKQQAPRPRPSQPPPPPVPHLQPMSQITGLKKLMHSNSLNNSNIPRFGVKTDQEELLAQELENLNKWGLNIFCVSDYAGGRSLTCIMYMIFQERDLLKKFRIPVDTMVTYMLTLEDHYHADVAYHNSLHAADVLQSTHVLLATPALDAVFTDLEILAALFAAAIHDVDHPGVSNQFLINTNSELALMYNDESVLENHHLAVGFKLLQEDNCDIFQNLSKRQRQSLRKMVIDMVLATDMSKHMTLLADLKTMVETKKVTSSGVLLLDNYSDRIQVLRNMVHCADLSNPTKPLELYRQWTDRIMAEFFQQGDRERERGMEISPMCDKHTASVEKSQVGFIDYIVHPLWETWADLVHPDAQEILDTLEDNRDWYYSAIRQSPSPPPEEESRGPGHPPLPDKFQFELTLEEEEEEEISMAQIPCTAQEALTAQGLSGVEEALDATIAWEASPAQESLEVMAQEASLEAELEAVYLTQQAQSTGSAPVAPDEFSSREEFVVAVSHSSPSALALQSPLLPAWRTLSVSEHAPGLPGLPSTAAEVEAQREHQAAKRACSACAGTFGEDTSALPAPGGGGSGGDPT
Description: as §3

PDE4B = PDE4B (Homo sapiens, UniProt Q07343); assay: Fluorescence polarization assay PDE4B; format: biochemical; settings: substrate cAMP
Description: as §3

PDE4C = PDE4C (Homo sapiens, UniProt Q08493); assay: Fluorescence polarization assay PDE4C; format: biochemical; settings: substrate cAMP
PDE4C, sequence (Q08493 whole entry, species assumed): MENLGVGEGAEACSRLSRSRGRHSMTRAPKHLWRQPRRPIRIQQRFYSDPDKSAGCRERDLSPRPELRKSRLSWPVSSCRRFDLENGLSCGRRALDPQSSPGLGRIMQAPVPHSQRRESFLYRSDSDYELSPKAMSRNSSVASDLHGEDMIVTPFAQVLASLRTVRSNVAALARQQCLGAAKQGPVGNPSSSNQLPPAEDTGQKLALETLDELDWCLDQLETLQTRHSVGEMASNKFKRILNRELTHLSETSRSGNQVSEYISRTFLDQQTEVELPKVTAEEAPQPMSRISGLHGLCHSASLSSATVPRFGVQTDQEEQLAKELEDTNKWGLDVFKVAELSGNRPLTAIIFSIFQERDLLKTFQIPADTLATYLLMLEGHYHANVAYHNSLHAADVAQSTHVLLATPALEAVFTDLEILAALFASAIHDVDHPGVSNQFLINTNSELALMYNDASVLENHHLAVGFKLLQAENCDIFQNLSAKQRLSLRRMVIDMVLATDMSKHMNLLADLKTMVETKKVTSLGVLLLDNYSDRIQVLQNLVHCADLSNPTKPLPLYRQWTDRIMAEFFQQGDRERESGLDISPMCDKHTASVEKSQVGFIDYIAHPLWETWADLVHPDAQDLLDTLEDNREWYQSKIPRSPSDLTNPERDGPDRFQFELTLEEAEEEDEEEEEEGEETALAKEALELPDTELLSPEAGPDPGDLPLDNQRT
Description: as §3

PDE5A = PDE5A (Homo sapiens, UniProt O76074); assay: Fluorescence polarization assay PDE5A; format: biochemical; settings: substrate cGMP
Description: as §3

PDE7A = PDE7A (Homo sapiens, UniProt Q13946); assay: Fluorescence polarization assay PDE7A; format: biochemical; settings: substrate cAMP
PDE7A, sequence (Q13946 whole entry, species assumed): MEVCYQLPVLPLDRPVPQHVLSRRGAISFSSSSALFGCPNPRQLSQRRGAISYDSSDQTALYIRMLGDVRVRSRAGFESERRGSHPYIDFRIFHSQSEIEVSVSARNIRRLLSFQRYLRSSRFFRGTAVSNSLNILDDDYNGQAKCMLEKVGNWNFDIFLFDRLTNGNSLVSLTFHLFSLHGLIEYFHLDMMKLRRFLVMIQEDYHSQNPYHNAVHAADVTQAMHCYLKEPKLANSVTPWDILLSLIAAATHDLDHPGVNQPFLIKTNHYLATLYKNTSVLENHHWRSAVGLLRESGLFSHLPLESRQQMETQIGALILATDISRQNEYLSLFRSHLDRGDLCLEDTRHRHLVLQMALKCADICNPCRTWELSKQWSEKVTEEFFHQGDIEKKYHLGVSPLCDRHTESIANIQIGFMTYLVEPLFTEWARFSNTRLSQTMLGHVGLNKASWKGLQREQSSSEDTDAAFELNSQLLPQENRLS
Description: as §3

PDE9A = PDE9A (Homo sapiens, UniProt O76083); assay: Fluorescence polarization assay PDE9A; format: biochemical; settings: substrate cGMP
Description: as §3

PDE10A = PDE10A (Homo sapiens, UniProt Q9Y233); assay: Fluorescence polarization assay PDE10A; format: biochemical; settings: substrate cAMP
PDE10A, sequence (Q9Y233 whole entry, species assumed): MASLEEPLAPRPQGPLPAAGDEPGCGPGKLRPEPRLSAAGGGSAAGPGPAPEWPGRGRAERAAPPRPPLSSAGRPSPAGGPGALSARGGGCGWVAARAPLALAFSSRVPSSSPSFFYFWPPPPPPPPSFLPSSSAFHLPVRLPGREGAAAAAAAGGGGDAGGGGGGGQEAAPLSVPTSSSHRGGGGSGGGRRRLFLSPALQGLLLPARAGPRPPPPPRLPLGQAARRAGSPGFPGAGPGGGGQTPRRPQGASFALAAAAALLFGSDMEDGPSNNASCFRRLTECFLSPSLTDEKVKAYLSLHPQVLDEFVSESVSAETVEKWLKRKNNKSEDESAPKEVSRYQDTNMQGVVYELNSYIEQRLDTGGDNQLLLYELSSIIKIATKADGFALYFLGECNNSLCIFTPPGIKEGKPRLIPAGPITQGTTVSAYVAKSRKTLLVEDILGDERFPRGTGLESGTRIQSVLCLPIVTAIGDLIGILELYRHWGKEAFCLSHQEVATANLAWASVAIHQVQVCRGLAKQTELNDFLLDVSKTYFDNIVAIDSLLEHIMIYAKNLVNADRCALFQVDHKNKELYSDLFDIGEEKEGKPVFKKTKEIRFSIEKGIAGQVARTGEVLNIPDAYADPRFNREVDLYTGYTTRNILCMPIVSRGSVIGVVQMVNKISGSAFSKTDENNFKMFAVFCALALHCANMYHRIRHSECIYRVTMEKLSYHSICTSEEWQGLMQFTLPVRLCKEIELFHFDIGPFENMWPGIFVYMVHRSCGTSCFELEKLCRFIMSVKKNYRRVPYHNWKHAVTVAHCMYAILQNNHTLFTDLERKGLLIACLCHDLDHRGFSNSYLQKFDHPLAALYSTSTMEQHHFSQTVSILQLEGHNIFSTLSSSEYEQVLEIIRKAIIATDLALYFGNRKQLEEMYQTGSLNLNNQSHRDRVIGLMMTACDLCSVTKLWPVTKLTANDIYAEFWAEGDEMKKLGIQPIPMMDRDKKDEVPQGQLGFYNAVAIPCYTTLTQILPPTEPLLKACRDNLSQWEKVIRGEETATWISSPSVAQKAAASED
Description: as §3

HaCaT cells [2] = assay: Keratinocyte (HaCaT) proliferation, MTT assay; format: cell-based, human; settings: Homo sapiens, HaCaT, 72 h; read-out: IC50 of cell proliferation
Description: An experiment to check keratinocyte proliferation inhibitory activity of selected compounds of Formula-I was performed to establish its application in skin disorders related to keratinocyte hyper-proliferation. HaCaT cells, a human immortalized cell line derived from keratinocytes, representing hyper-proliferating keratinocytes was investigated for anti-proliferative potential of the selected compounds by MTT assay.

TNF-α = TNF-α release from stimulated HaCaT cells, ELISA; format: cell-based, human; settings: IFN-γ 50 ng/mL, 48 hrs
Description: as §1
(§4) HaCaT cells were stimulated with different stimulators as follows: • a. Cells were exposed to stimulator LPS at 1 μg/mL for 48 hrs to stimulate IL-1β • b. Cells were exposed to stimulator IFN-γ at 50 ng/mL for 48 hrs to stimulate TNF-α, IL-6
(§5) After 48 hrs supernatants were collected and centrifuged to remove any cell debris and aliquots were used for ELISA.

IL-6 = IL-6 release from stimulated HaCaT cells, ELISA; format: cell-based, human; settings: for IL-6 Conc.: IFN-γ 50 ng/mL, 48 hrs
Description: as §1, §4, §5

[3] = test system: Imiquimod induced psoriasis in BALB/c mice; assay: Imiquimod induced psoriasis model in Balb/c mice; settings: for % inhibition of Ear inflamn. / Histopathology Scores Epidermal Thickness / Histopathology Scores Hyperkeratosis / Histopathology Scores Rete Peg Prolifern. / PASI score / Spleen weight / IL23 Levels: twice daily; for IL23 Levels: ear tissue lysate
Description: BALB/c mice (Sex: Female, Age: 7-8 Weeks) were used for induction of psoriasis using IMQ. Topical application of imiquimod (IMQ) in mice can induce and exacerbate psoriasis closely resembling human psoriasis. […] 3%, 4% and 5% and positive control of Tenovate (Clobetasol) 0.05% cream. In all 63 mg cream containing 5% of IMQ was applied to dorsal area (shaved back) and right ear for 8 days. Topical formulations from Example 7 were used during this experiment.
The parameters investigated were ear thickness change, % inhibition of ear inflammation, Psoriatic Area Severity Index (PASI). Histopathology was performed of right ear and dorsal skin by H & E staining. The biomarker in this study was inflammatory cytokine IL-23 analyzed by ELISA obtained from tissue lysate of ear region where IMQ and doses were applied.

With `COc1cccc2c1C(=O)c1c(O)c3c(c(O)c1C2=O)C[C@@](O)(C(=O)CO)C[C@@H]3O[C@H]1C[C@H](N)[C@H](O)[C@H](C)O1` [Doxorubicin] the “% Viability (±S.E.M.)” value (human PBMCs; 3 μM, 24 hrs) was 110 ± 1%, the “% Viability (±S.E.M.)” value (human PBMCs; 3 μM, 48 hrs) was 70 ± 5% and the “% Viability (±S.E.M.)” value (human PBMCs; 3 μM, 72 hrs) was 52 ± 1%. For the same compound, the “% Viability (±S.E.M.)” value (HaCaT cells [1]; 3 μM, 24 hrs) was 74 ± 6%, the “% Viability (±S.E.M.)” value (HaCaT cells [1]; 3 μM, 48 hrs) was 108 ± 5% and the “% Viability (±S.E.M.)” value (HaCaT cells [1]; 3 μM, 72 hrs) was 110 ± 2%.

`O=C(Nc1ccc([N+](=O)[O-])cc1Cl)c1cc(Cl)ccc1O` [Niclosamide] gave an inhibition at 30 µM (PDE2 (Human platelets)) of 16%, an inhibition at 30 µM (PDE5 (Human platelets)) of 49% and an IC50 (PDE1A) of 88.7 µM. For the same compound, the IC50 (PDE2A) was 11.6 µM, the IC50 (PDE4A) was 100 µM and the IC50 (PDE4B) was 69.1 µM. It also gave an IC50 (PDE4C) of 20.2 µM, an IC50 (PDE5A) of 16.7 µM and an IC50 (PDE7A) of 19.1 µM. It also gave an IC50 (PDE9A) of 59.8 µM, an IC50 (PDE10A) of 19 µM and an IC50 (HaCaT cells [2]) of 3.25 µM. For the same compound, the “% Viability (±S.E.M.)” value (human PBMCs; 0.01 μM, 24 hrs) was 134 ± 7%, the “% Viability (±S.E.M.)” value (human PBMCs; 0.01 μM, 48 hrs) was 107 ± 1% and the “% Viability (±S.E.M.)” value (human PBMCs; 0.01 μM, 72 hrs) was 107 ± 6%. For the same compound, the “% Viability (±S.E.M.)” value (human PBMCs; 1 μM, 24 hrs) was 94 ± 4%, the “% Viability (±S.E.M.)” value (human PBMCs; 1 μM, 48 hrs) was 63 ± 0% and the “% Viability (±S.E.M.)” value (human PBMCs; 1 μM, 72 hrs) was 60 ± 1%. The “% Viability (±S.E.M.)” value (human PBMCs; 100 μM, 24 hrs) was 27 ± 5%, the “% Viability (±S.E.M.)” value (human PBMCs; 100 μM, 48 hrs) was 2 ± 1% and the “% Viability (±S.E.M.)” value (human PBMCs; 100 μM, 72 hrs) was −2 ± 0%. For the same compound, the “% Viability (±S.E.M.)” value (HaCaT cells [1]; 0.1 μM, 24 hrs) was 111 ± 9%, the “% Viability (±S.E.M.)” value (HaCaT cells [1]; 0.1 μM, 48 hrs) was 82 ± 3% and the “% Viability (±S.E.M.)” value (HaCaT cells [1]; 0.1 μM, 72 hrs) was 98 ± 6%. For the same compound, the “% Viability (±S.E.M.)” value (HaCaT cells [1]; 1 μM, 24 hrs) was 62 ± 4%, the “% Viability (±S.E.M.)” value (HaCaT cells [1]; 1 μM, 48 hrs) was 46 ± 0% and the “% Viability (±S.E.M.)” value (HaCaT cells [1]; 1 μM, 72 hrs) was 59 ± 11%. For the same compound, the “% Viability (±S.E.M.)” value (HaCaT cells [1]; 5 μM, 24 hrs) was 48 ± 1%, the “% Viability (±S.E.M.)” value (HaCaT cells [1]; 5 μM, 48 hrs) was 36 ± 2% and the “% Viability (±S.E.M.)” value (HaCaT cells [1]; 5 μM, 72 hrs) was 45 ± 8%. The “% Viability (±S.E.M.)” value (HaCaT cells [1]; 10 μM, 48 hrs) was 29 ± 1%, the “% Viability (±S.E.M.)” value (HaCaT cells [1]; 10 μM, 72 hrs) was 33 ± 2% and the “% Viability (±S.E.M.)” value (HaCaT cells [1]; 50 μM, 24 hrs) was 28 ± 1%. The “% Viability (±S.E.M.)” value (HaCaT cells [1]; 50 μM, 48 hrs) was 16 ± 0%, the “% Viability (±S.E.M.)” value (HaCaT cells [1]; 50 μM, 72 hrs) was 23 ± 7% and the “TNF-α Conc.” value (TNF-α; 0.05 μM) was 2.5 ± 0.1 pg/mL. For the same compound, the “TNF-α Conc.” value (TNF-α; 0.1 μM) was 2.8 ± 0.1 pg/mL, the “TNF-α Conc.” value (TNF-α; 0.25 μM) was 2.5 ± 0.1 pg/mL and the “IL-6 Conc.” value (IL-6; 0.05 μM) was 103 ± 4 pg/mL. The “IL-6 Conc.” value (IL-6; 0.1 μM) was 76 ± 4 pg/mL, the “IL-6 release in HaCaT cells (in words)” value (IL-6; 0.25 μM) was “Reduction in IL-6 release” and the “IL-6 Conc.” value (IL-6; 0.25 μM) was 54 ± 11 pg/mL. The “% inhibition of Ear inflamn.” value ([3]; 1% topical) was 27.1%, the “Histopathology Scores Epidermal Thickness” value ([3]; 1% topical) was 6.8 ± 0.2 and the “Histopathology Scores Hyperkeratosis” value ([3]; 1% topical) was 0.8 ± 0.2. For the same compound, the “Histopathology Scores Rete Peg Prolifern.” value ([3]; 1% topical) was 1.8 ± 0.2, the PASI score ([3]; 1% topical) was 15.8 ± 3.0 and the “Spleen weight” value ([3]; 1% topical, Day 9) was 265.2 ± 49.2 mg. The “IL23 Levels” value ([3]; 1% topical) was 119.9 ± 7.8 pg/mL, the “% inhibition of Ear inflamn.” value ([3]; 2% topical) was 30.4% and the “Histopathology Scores Epidermal Thickness” value ([3]; 2% topical) was 5.6 ± 0.8. The “Histopathology Scores Hyperkeratosis” value ([3]; 2% topical) was 1.4 ± 0.2, the “Histopathology Scores Rete Peg Prolifern.” value ([3]; 2% topical) was 1.4 ± 0.2 and the PASI score ([3]; 2% topical) was 17.2 ± 1.7. The “Spleen weight” value ([3]; 2% topical, Day 9) was 214.4 ± 15.1 mg, the “IL23 Levels” value ([3]; 2% topical) was 96.6 ± 10.9 pg/mL and the “reduction in the PASI score” value ([3]; 3% concentration) was “up to 50%”. For the same compound, the “% inhibition of Ear inflamn.” value ([3]; 3% topical) was 42.7%, the “Histopathology Scores Epidermal Thickness” value ([3]; 3% topical) was 5.2 ± 0.2 and the “Histopathology Scores Hyperkeratosis” value ([3]; 3% topical) was 1.0 ± 0.0^$. The “Histopathology Scores Rete Peg Prolifern.” value ([3]; 3% topical) was 0.5 ± 0.2, the PASI score ([3]; 3% topical) was 10.7 ± 4.1 and the “Spleen weight” value ([3]; 3% topical, Day 9) was 229.7 ± 18.7 mg. The “IL23 Levels” value ([3]; 3% topical) was 83.6 ± 9.8 pg/mL, the “Spleen weight vs disease control (in words)” value ([3]; Niclosamide 2%, Nitazoxanide 3% and 5%, Clobetasol 0.05%, Day 9) was “marginal reduction in spleen weight” and the “IL-23 level in ear tissue homogenates (in words)” value ([3]; different doses) was “reduction of IL-23 level”. For the same compound, the “Hyperkeratosis (in words)” value ([3]; ear lobe histopathology) was “significant reduction in Hyperkeratosis”.
